Assay results reported in ChEMBL document CHEMBL1131978, “3D QSAR studies on new oxazolidinone antibacterial agents by comparative molecular field analysis” (Bioorg Med Chem Lett, 1999).
In brackets after ≈: the same amount, converted by molar mass.

tested on: Staphylococcus aureus; experiment: In vitro antibacterial activity against the methicillin-resistant Staphylococcus aureus 88; format: functional

First: CC(=O)NC[C@H]1CN(c2ccc(N3CCN(C(=O)c4cc(C(N)=O)no4)CC3)c(F)c2)C(=O)O1
Second: CC(=O)NC[C@H]1CN(c2ccc(N3CCN(C(=O)c4cc(C(=O)O)no4)CC3)c(F)c2)C(=O)O1
The “Log 1/MIC” value of the first is higher: -0.19 for the first, -2 for the second.

`COc1cc(CN2CCN(c3ccc(N4C[C@H](CNC(C)=O)OC4=O)cc3F)CC2)on1` and `COc1cccc(-c2cc(CN3CCN(c4ccc(N5C[C@H](CNC(C)=O)OC5=O)cc4F)CC3)on2)c1` are the same in “Log 1/MIC” value: -0.49 for the first, -0.49 for the second.

Going from `CC(=O)NC[C@H]1CN(c2ccc(N3CCN(Cc4cc(/C=C/c5ccccc5)no4)CC3)c(F)c2)C(=O)O1` to `CC(=O)NC[C@H]1CN(c2ccc(N3CCN(Cc4cc(-c5ccccn5)no4)CC3)c(F)c2)C(=O)O1`, the “Log 1/MIC” value rises from -1.4 to -0.19.

Compared with `CC(=O)NC[C@H]1CN(c2ccc(N3CCN(C(=O)c4cc(C(F)(F)F)no4)CC3)c(F)c2)C(=O)O1`, `CC(=O)NC[C@H]1CN(c2ccc(N3CCN(C(=O)c4cc(O)no4)CC3)c(F)c2)C(=O)O1` is lower in “Log 1/MIC” value: -0.49 for the first, -1.7 for the second.

Going from `CC(=O)NC[C@H]1CN(c2ccc(N3CCN(C(=O)c4cc(C)no4)CC3)c(F)c2)C(=O)O1` to `CC(=O)NC[C@H]1CN(c2ccc(N3CCN(C(=O)c4cc(Cl)no4)CC3)c(F)c2)C(=O)O1`, the “Log 1/MIC” value rises from -0.19 to 0.11.

Compared with `CC(=O)NC[C@H]1CN(c2ccc(N3CCN(C(=O)CO)CC3)c(F)c2)C(=O)O1` [EPEREZOLID], `CC(=O)NC[C@H]1CN(c2ccc(N3CCN(C(=O)c4cc(Br)no4)CC3)c(F)c2)C(=O)O1` is higher in “Log 1/MIC” value: -0.19 for the first, 0.11 for the second.

Going from `COc1ccc(-c2cc(CN3CCN(c4ccc(N5C[C@H](CNC(C)=O)OC5=O)cc4F)CC3)on2)cc1OC` to `CC(=O)NC[C@H]1CN(c2ccc(N3CCN(Cc4cc(-c5ccc(C)cc5)no4)CC3)c(F)c2)C(=O)O1`, the “Log 1/MIC” value falls from -0.49 to -1.1.

Compared with `CC(=O)NC[C@H]1CN(c2ccc(N3CCN(C(=O)c4cc(COC(N)=O)no4)CC3)c(F)c2)C(=O)O1`, `CC(=O)NC[C@H]1CN(c2ccc(N3CCN(C(=O)c4cc(COC(=O)N(C)C)no4)CC3)c(F)c2)C(=O)O1` is lower in “Log 1/MIC” value: -0.19 for the first, -0.49 for the second.

Compared with `CC(=O)NC[C@H]1CN(c2ccc(N3CCN(Cc4cc(-c5ccc(Cl)cc5)no4)CC3)c(F)c2)C(=O)O1`, `CC(=O)NC[C@H]1CN(c2ccc(N3CCN(Cc4cc(-c5ccc(F)cc5)no4)CC3)c(F)c2)C(=O)O1` is higher in “Log 1/MIC” value: -1.7 for the first, -0.49 for the second.

Compared with `CC(=O)NC[C@H]1CN(c2ccc(N3CCN(C(=O)c4cc(-c5csnn5)no4)CC3)c(F)c2)C(=O)O1`, `CC(=O)NC[C@H]1CN(c2ccc(N3CCN(C(=O)c4cc(-c5cnsn5)no4)CC3)c(F)c2)C(=O)O1` is lower in “Log 1/MIC” value: 0.11 for the first, -0.19 for the second.

First: CC(=O)NC[C@H]1CN(c2ccc(N3CCN(C(=O)c4cc(C(=O)N(C)C)no4)CC3)c(F)c2)C(=O)O1
Second: COc1cc(C(=O)N2CCN(c3ccc(N4C[C@H](CNC(C)=O)OC4=O)cc3F)CC2)on1
The “Log 1/MIC” value of the first is lower: -0.49 for the first, -0.19 for the second.

First: CC(=O)NC[C@H]1CN(c2ccc(N3CCN(C(=O)c4cc(-c5cccs5)no4)CC3)c(F)c2)C(=O)O1
Second: CC(=O)NC[C@H]1CN(c2ccc(N3CCN(C(=O)c4cc(-c5nccs5)no4)CC3)c(F)c2)C(=O)O1
The “Log 1/MIC” value of the first is lower: -0.11 for the first, 0.41 for the second.

`CC(=O)NC[C@H]1CN(c2ccc(N3CCN(C(=O)c4cc(OCCF)no4)CC3)c(F)c2)C(=O)O1` and `CC(=O)NC[C@H]1CN(c2ccc(N3CCN(C(=O)c4cc(C#N)no4)CC3)c(F)c2)C(=O)O1` are the same in “Log 1/MIC” value: -0.19 for the first, -0.19 for the second.

Going from `CC(=O)NC[C@H]1CN(c2ccc(N3CCN(Cc4cc(-c5ccc(C#N)cc5)no4)CC3)c(F)c2)C(=O)O1` to `CC(=O)NC[C@H]1CN(c2ccc(N3CCN(Cc4cc(-c5ccc(Oc6ccccc6)cc5)no4)CC3)c(F)c2)C(=O)O1`, the “Log 1/MIC” value falls from -0.8 to -2.

`CC(=O)NC[C@H]1CN(c2ccc(N3CCN(C(=O)c4cccs4)CC3)c(F)c2)C(=O)O1` and `CC(=O)NC[C@H]1CN(c2ccc(N3CCN(C(=O)c4nccs4)CC3)c(F)c2)C(=O)O1` are the same in “Log 1/MIC” value: -0.19 for the first, -0.19 for the second.

`CCCCCCCCCCS(=O)(=O)N[C@H](CCCCCC)COP(=O)(O)OCCO` and `CC(=O)NC[C@H]1CN(c2ccc(N3CCN(C(=O)c4ccno4)CC3)c(F)c2)C(=O)O1` are the same in “Log 1/MIC” value: -0.19 for the first, -0.19 for the second.

Going from `CC(=O)NC[C@H]1CN(c2ccc(N3CCN(C(=O)c4cc(C(N)=O)no4)CC3)c(F)c2)C(=O)O1` to `CC(=O)NC[C@H]1CN(c2ccc(N3CCN(C(=O)c4cc(C(=O)O)no4)CC3)c(F)c2)C(=O)O1`, the MIC rises from 1.56 µg/mL (≈ 3.29 µM) to 100 µg/mL (≈ 210 µM) (64-fold).

`COc1cc(CN2CCN(c3ccc(N4C[C@H](CNC(C)=O)OC4=O)cc3F)CC2)on1` and `COc1cccc(-c2cc(CN3CCN(c4ccc(N5C[C@H](CNC(C)=O)OC5=O)cc4F)CC3)on2)c1` are the same in MIC: 3.12 µg/mL (≈ 6.97 µM) for the first, 3.12 µg/mL (≈ 5.96 µM) for the second.

First: CC(=O)NC[C@H]1CN(c2ccc(N3CCN(Cc4cc(/C=C/c5ccccc5)no4)CC3)c(F)c2)C(=O)O1
Second: CC(=O)NC[C@H]1CN(c2ccc(N3CCN(Cc4cc(-c5ccccn5)no4)CC3)c(F)c2)C(=O)O1
The MIC of the first is 16-fold higher: 25 µg/mL (≈ 48.1 µM) for the first, 1.56 µg/mL (≈ 3.15 µM) for the second.

Going from `CC(=O)NC[C@H]1CN(c2ccc(N3CCN(C(=O)c4cc(C(F)(F)F)no4)CC3)c(F)c2)C(=O)O1` to `CC(=O)NC[C@H]1CN(c2ccc(N3CCN(C(=O)c4cc(O)no4)CC3)c(F)c2)C(=O)O1`, the MIC rises from 3.12 µg/mL (≈ 6.25 µM) to 50 µg/mL (≈ 112 µM) (16-fold).

Compared with `CC(=O)NC[C@H]1CN(c2ccc(N3CCN(C(=O)c4cc(C)no4)CC3)c(F)c2)C(=O)O1`, `CC(=O)NC[C@H]1CN(c2ccc(N3CCN(C(=O)c4cc(Cl)no4)CC3)c(F)c2)C(=O)O1` is 2-fold lower in MIC: 1.56 µg/mL (≈ 3.5 µM) for the first, 0.78 µg/mL (≈ 1.67 µM) for the second.

First: CC(=O)NC[C@H]1CN(c2ccc(N3CCN(C(=O)CO)CC3)c(F)c2)C(=O)O1 [EPEREZOLID]
Second: CC(=O)NC[C@H]1CN(c2ccc(N3CCN(C(=O)c4cc(Br)no4)CC3)c(F)c2)C(=O)O1
The MIC of the first is 2-fold higher: 1.56 µg/mL (≈ 3.96 µM) for the first, 0.78 µg/mL (≈ 1.53 µM) for the second.

Going from `COc1ccc(-c2cc(CN3CCN(c4ccc(N5C[C@H](CNC(C)=O)OC5=O)cc4F)CC3)on2)cc1OC` to `CC(=O)NC[C@H]1CN(c2ccc(N3CCN(Cc4cc(-c5ccc(C)cc5)no4)CC3)c(F)c2)C(=O)O1`, the MIC rises from 3.12 µg/mL (≈ 5.64 µM) to 12.5 µg/mL (≈ 24.6 µM) (4-fold).

Going from `CC(=O)NC[C@H]1CN(c2ccc(N3CCN(C(=O)c4cc(COC(N)=O)no4)CC3)c(F)c2)C(=O)O1` to `CC(=O)NC[C@H]1CN(c2ccc(N3CCN(C(=O)c4cc(COC(=O)N(C)C)no4)CC3)c(F)c2)C(=O)O1`, the MIC rises from 1.56 µg/mL (≈ 3.09 µM) to 3.12 µg/mL (≈ 5.86 µM) (2-fold).

Compared with `CC(=O)NC[C@H]1CN(c2ccc(N3CCN(Cc4cc(-c5ccc(Cl)cc5)no4)CC3)c(F)c2)C(=O)O1`, `CC(=O)NC[C@H]1CN(c2ccc(N3CCN(Cc4cc(-c5ccc(F)cc5)no4)CC3)c(F)c2)C(=O)O1` is 16-fold lower in MIC: 50 µg/mL (≈ 94.7 µM) for the first, 3.12 µg/mL (≈ 6.1 µM) for the second.

Compared with `CC(=O)NC[C@H]1CN(c2ccc(N3CCN(C(=O)c4cc(-c5csnn5)no4)CC3)c(F)c2)C(=O)O1`, `CC(=O)NC[C@H]1CN(c2ccc(N3CCN(C(=O)c4cc(-c5cnsn5)no4)CC3)c(F)c2)C(=O)O1` is 2-fold higher in MIC: 0.78 µg/mL (≈ 1.51 µM) for the first, 1.56 µg/mL (≈ 3.03 µM) for the second.

First: CC(=O)NC[C@H]1CN(c2ccc(N3CCN(C(=O)c4cc(C(=O)N(C)C)no4)CC3)c(F)c2)C(=O)O1
Second: COc1cc(C(=O)N2CCN(c3ccc(N4C[C@H](CNC(C)=O)OC4=O)cc3F)CC2)on1
The MIC of the first is 2-fold higher: 3.12 µg/mL (≈ 6.21 µM) for the first, 1.56 µg/mL (≈ 3.38 µM) for the second.

Compared with `CC(=O)NC[C@H]1CN(c2ccc(N3CCN(C(=O)c4cc(-c5cccs5)no4)CC3)c(F)c2)C(=O)O1`, `CC(=O)NC[C@H]1CN(c2ccc(N3CCN(C(=O)c4cc(-c5nccs5)no4)CC3)c(F)c2)C(=O)O1` is 2-fold lower in MIC: 0.78 µg/mL (≈ 1.52 µM) for the first, 0.39 µg/mL (≈ 0.758 µM) for the second.

`CC(=O)NC[C@H]1CN(c2ccc(N3CCN(C(=O)c4cc(OCCF)no4)CC3)c(F)c2)C(=O)O1` and `CC(=O)NC[C@H]1CN(c2ccc(N3CCN(C(=O)c4cc(C#N)no4)CC3)c(F)c2)C(=O)O1` are the same in MIC: 1.56 µg/mL (≈ 3.16 µM) for the first, 1.56 µg/mL (≈ 3.42 µM) for the second.

First: CC(=O)NC[C@H]1CN(c2ccc(N3CCN(Cc4cc(-c5ccc(C#N)cc5)no4)CC3)c(F)c2)C(=O)O1
Second: CC(=O)NC[C@H]1CN(c2ccc(N3CCN(Cc4cc(-c5ccc(Oc6ccccc6)cc5)no4)CC3)c(F)c2)C(=O)O1
The MIC of the first is 16-fold lower: 6.25 µg/mL (≈ 12.1 µM) for the first, 100 µg/mL (≈ 171 µM) for the second.

`CC(=O)NC[C@H]1CN(c2ccc(N3CCN(C(=O)c4cccs4)CC3)c(F)c2)C(=O)O1` and `CC(=O)NC[C@H]1CN(c2ccc(N3CCN(C(=O)c4nccs4)CC3)c(F)c2)C(=O)O1` are the same in MIC: 1.56 µg/mL (≈ 3.49 µM) for the first, 1.56 µg/mL (≈ 3.49 µM) for the second.

`CC(=O)NC[C@H]1CN(c2ccc(N3CCOCC3)c(F)c2)C(=O)O1` [LINEZOLID] and `CC(=O)NC[C@H]1CN(c2ccc(N3CCN(C(=O)c4ccno4)CC3)c(F)c2)C(=O)O1` are the same in MIC: 1.56 µg/mL (≈ 4.62 µM) for the first, 1.56 µg/mL (≈ 3.62 µM) for the second.

With `CCCCCCCCCCS(=O)(=O)N[C@H](CCCCCC)COP(=O)(O)OCCO` the MIC was 1.56 µg/mL (≈ 3.29 µM).
